# In ChEMBL document CHEMBL4342404, “Anti-cholinesterase hybrids as multi-target-directed ligands against Alzheimer's disease (1998-2018)” (Bioorg Med Chem, 2019):
# Tested on: not listed separately
# Test: Antioxidant activity of compound by ORAC-FL assay relative to trolox
# Assay type: functional
# Conditions: not given
row,Compound,Ratio
1,COc1cc(/C=C/C(=O)N(CC(=O)NCc2ccccc2)C2CCN(Cc3ccccc3)CC2)ccc1O,4.8 to 8.71
2,COc1cc(/C=C/C(=O)N(CCC2CCN(Cc3ccccc3)CC2)CC(=O)Nc2c(C)cccc2Cl)ccc1O,4.8 to 8.71
3,COc1cc(/C=C/C(=O)N(CCCC2CCN(Cc3ccccc3)CC2)CC(=O)Nc2c(C)cccc2Cl)ccc1O,4.8 to 8.71
4,COc1cc(/C=C/C(=O)N(CC(=O)Nc2c(C)cccc2Cl)C2CCN(Cc3ccccc3)CC2)ccc1O,4.8 to 8.71
5,COc1cc(/C=C/C(=O)N(CCC2CCN(Cc3ccccc3)CC2)CC(=O)NCc2ccccc2)ccc1O,4.8 to 8.71
6,COc1cc(/C=C/C(=O)N(CCC2CCN(Cc3ccccc3)CC2)CC(=O)Nc2ccc3ccccc3c2)ccc1O,4.8 to 8.71
7,COc1ccc2[nH]cc(CCNC(=O)CN(C(=O)/C=C/c3ccc(O)c(OC)c3)C3CCN(Cc4ccccc4)CC3)c2c1,4.8 to 8.71
8,COc1cc(/C=C/C(=O)N(CCCC2CCN(Cc3ccccc3)CC2)CC(=O)Nc2ccc3ccccc3c2)ccc1O,4.8 to 8.71
9,COc1cc(/C=C/C(=O)N(CCCC2CCN(Cc3ccccc3)CC2)CC(=O)NCc2ccccc2)ccc1O,4.8 to 8.71
10,COc1cc(/C=C/C(=O)N(CC(=O)Nc2ccc3ccccc3c2)C2CCN(Cc3ccccc3)CC2)ccc1O,4.8 to 8.71

# Organism: Homo sapiens
# Test: Selectivity index, ratio of IC50 for human plasma butyrylcholinesterase to IC50 for human erythrocyte acetylcholinesterase
# Conditions: not given
row,Compound,Selectivity Index
1,COc1cc2oc(-c3ccc(NCCCCNc4c5c(nc6cc(Cl)ccc46)CCCC5)cc3)cc(=O)c2c(OC)c1OC,1690
2,COc1cc2oc(-c3ccc(NCCCNc4c5c(nc6cc(Cl)ccc46)CCCC5)cc3)cc(=O)c2c(OC)c1OC,92
3,COc1cc2oc(-c3ccc(NCCNc4c5c(nc6cc(Cl)ccc46)CCCC5)cc3)cc(=O)c2c(OC)c1OC,742

# Target: Acetylcholinesterase (Electrophorus electricus, UniProt O42275)
# Test: Inhibition of electric eel AChE using acetylthiocholine iodide as substrate preincubated for 15 mins followed by substrate addition and measured at 1 min intervals by Ellman's method
# Conditions: not given
# Sequence of Acetylcholinesterase (Electrophorus electricus, UniProt O42275) (O42275 whole entry): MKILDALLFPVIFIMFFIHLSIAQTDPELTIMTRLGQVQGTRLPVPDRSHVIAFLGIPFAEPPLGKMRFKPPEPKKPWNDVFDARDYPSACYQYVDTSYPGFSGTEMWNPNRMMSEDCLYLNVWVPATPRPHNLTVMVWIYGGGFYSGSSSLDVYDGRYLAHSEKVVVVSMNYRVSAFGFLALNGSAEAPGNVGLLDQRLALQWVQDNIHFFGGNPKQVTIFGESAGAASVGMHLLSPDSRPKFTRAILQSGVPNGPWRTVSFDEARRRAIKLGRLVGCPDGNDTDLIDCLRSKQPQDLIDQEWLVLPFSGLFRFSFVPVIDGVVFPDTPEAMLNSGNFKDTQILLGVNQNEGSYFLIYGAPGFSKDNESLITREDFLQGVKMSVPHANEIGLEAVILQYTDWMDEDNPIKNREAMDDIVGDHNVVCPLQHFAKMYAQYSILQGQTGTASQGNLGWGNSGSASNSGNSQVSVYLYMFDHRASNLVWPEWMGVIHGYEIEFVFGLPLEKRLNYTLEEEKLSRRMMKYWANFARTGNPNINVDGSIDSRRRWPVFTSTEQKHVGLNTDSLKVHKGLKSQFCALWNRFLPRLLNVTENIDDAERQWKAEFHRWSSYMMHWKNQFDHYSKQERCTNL
row,Compound,IC50 [nM]
1,Cc1ccc2[nH]cc(CCNC(=O)/C=C\C(=O)Nc3ccc4c(c3)C(=O)c3cccc5ccnc-4c35)c2c1,5100
2,O=C(/C=C\C(=O)Nc1ccc2c(c1)C(=O)c1cccc3ccnc-2c13)NCCc1c[nH]c2ccc(F)cc12,15000
3,O=C(/C=C/C(=O)Nc1ccc2c(c1)C(=O)c1cccc3ccnc-2c13)NCCc1c[nH]c2ccc(F)cc12,2370
4,COc1ccc2[nH]cc(CCNC(=O)/C=C\C(=O)Nc3ccc4c(c3)C(=O)c3cccc5ccnc-4c35)c2c1,6100

# Target: Acetylcholinesterase (Electrophorus electricus) (UniProt O42275)
# Test: Inhibition of electric eel AChE-induced amyloid beta 1 to 40 (unknown origin) aggregation at 100 uM incubated for 8 hrs by thioflavin-T fluorescence method relative to control
# Conditions: not given
# Sequence of Acetylcholinesterase (Electrophorus electricus) (O42275 24-633 limits assumed): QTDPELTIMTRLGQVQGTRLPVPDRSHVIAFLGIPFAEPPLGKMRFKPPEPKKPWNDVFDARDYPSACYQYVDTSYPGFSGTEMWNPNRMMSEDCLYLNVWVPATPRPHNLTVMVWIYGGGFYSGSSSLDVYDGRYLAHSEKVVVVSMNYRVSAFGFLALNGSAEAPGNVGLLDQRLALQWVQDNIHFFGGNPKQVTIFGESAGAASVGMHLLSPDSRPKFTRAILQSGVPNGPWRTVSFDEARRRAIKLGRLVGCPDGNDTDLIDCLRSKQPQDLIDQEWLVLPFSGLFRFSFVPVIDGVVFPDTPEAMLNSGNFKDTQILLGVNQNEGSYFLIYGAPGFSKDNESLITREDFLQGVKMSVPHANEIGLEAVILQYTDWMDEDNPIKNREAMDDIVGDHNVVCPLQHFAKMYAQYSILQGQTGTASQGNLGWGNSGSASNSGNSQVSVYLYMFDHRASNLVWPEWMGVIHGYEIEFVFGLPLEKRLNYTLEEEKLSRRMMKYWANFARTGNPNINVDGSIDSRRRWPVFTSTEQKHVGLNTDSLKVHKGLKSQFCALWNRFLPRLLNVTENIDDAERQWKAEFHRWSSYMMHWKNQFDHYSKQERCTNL
row,Compound,inhibition [%]
1,Cc1ccc2[nH]cc(CCNC(=O)/C=C\C(=O)Nc3ccc4c(c3)C(=O)c3cccc5ccnc-4c35)c2c1,57.7
2,O=C(/C=C\C(=O)Nc1ccc2c(c1)C(=O)c1cccc3ccnc-2c13)NCCc1c[nH]c2ccc(F)cc12,32.5
3,O=C(/C=C/C(=O)Nc1ccc2c(c1)C(=O)c1cccc3ccnc-2c13)NCCc1c[nH]c2ccc(F)cc12,60.5
4,COc1ccc2[nH]cc(CCNC(=O)/C=C\C(=O)Nc3ccc4c(c3)C(=O)c3cccc5ccnc-4c35)c2c1,50.4

# Target: Acetylcholinesterase (Homo sapiens, UniProt P22303)
# Test: Potency index, ratio of tacrine IC50 for human erythrocyte acetylcholinesterase to compound IC50 for homogenate acetylcholinesterase
# Conditions: not given
# Sequence of Acetylcholinesterase (Homo sapiens, UniProt P22303) (P22303 whole entry): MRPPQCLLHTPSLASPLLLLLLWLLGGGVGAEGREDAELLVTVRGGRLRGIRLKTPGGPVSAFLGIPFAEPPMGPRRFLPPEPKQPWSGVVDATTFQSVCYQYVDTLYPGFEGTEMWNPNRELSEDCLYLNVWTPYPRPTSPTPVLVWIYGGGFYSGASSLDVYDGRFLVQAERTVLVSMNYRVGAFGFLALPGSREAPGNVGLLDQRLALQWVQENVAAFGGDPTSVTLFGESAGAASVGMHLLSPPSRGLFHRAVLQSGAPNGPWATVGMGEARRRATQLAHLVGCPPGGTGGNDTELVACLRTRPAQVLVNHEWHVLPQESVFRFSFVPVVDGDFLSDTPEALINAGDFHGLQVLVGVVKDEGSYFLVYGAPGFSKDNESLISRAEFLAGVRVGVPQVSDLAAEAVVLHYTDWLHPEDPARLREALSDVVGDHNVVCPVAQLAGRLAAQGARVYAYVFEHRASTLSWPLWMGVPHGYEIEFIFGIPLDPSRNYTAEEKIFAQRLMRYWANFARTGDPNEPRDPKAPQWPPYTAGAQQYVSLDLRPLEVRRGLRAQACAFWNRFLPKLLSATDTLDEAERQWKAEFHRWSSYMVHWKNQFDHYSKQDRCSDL
row,Compound,Ratio IC50
1,O=C(CCCCCCNc1c2c(nc3cc(Cl)cc(Cl)c13)CCCC2)NCCc1c[nH]c2ccccc12,70 to 43000
2,COc1ccc2[nH]cc(CCNC(=O)CCCCCCCNc3c4c(nc5ccccc35)CCCC4)c2c1,70 to 43000
3,O=C(CCCCCCCNc1c2c(nc3cc(Cl)cc(Cl)c13)CCCC2)NCCc1c[nH]c2ccccc12,70 to 43000
4,O=C(CCCCCNc1c2c(nc3c(Cl)cccc13)CCCC2)NCCc1c[nH]c2ccccc12,70 to 43000
5,COc1ccc2[nH]cc(CCNC(=O)CCCCCNc3c4c(nc5cccc(Cl)c35)CCCC4)c2c1,70 to 43000
6,O=C(CCCCNc1c2c(nc3ccccc13)CCCC2)NCCc1c[nH]c2ccccc12,70 to 43000
7,COc1ccc2[nH]cc(CCNC(=O)CCCCCNc3c4c(nc5ccccc35)CCCC4)c2c1,70 to 43000
8,COc1ccc2[nH]cc(CCNC(=O)CCCCNc3c4c(nc5ccccc35)CCCC4)c2c1,70 to 43000
9,O=C(CCCCCCNc1c2c(nc3ccccc13)CCCC2)NCCc1c[nH]c2ccccc12,70 to 43000
10,S=C(CCCCCNc1c2c(nc3ccccc13)CCCC2)NCCc1c[nH]c2ccccc12,70 to 43000
11,COc1ccc2[nH]cc(CCNC(=O)CCCCCCNc3c4c(nc5ccccc35)CCCC4)c2c1,70 to 43000
12,O=C(CCCCCNc1c2c(nc3ccc(F)cc13)CCCC2)NCCc1c[nH]c2ccccc12,70 to 43000
13,COc1ccc2[nH]cc(CCNC(=O)CCCCCNc3c4c(nc5cc(Cl)ccc35)CCCC4)c2c1,70 to 43000
14,O=C(CCCCCCCNc1c2c(nc3ccccc13)CCCC2)NCCc1c[nH]c2ccc(O)cc12,70 to 43000
15,O=C(CCCCCCCNc1c2c(nc3ccccc13)CCCC2)NCCc1c[nH]c2ccccc12,70 to 43000
16,COc1ccc2[nH]cc(CCNC(=O)CCCCCNc3c4c(nc5cc(Cl)cc(Cl)c35)CCCC4)c2c1,70 to 43000
17,O=C(CCCCCCNc1c2c(nc3cc(Cl)ccc13)CCCC2)NCCc1c[nH]c2ccccc12,70 to 43000
18,O=C(CCCCCNc1c2c(nc3ccccc13)CCCC2)NCCc1c[nH]c2ccccc12,70 to 43000
19,O=C(CCCCCNc1c2c(nc3ccccc13)CCCC2)NCCc1c[nH]c2ccc(O)cc12,70 to 43000
20,O=C(CCCCCNc1c2c(nc3cc(Cl)ccc13)CCCC2)NCCc1c[nH]c2ccccc12,70 to 43000
21,S=C(CCCCCCCNc1c2c(nc3ccccc13)CCCC2)NCCc1c[nH]c2ccccc12,70 to 43000
22,COc1ccc2[nH]cc(CCNC(=O)CCCCCCNc3c4c(nc5cc(Cl)cc(Cl)c35)CCCC4)c2c1,70 to 43000
23,O=C(CCCCCNc1c2c(nc3cc(Cl)cc(Cl)c13)CCCC2)NCCc1c[nH]c2ccccc12,70 to 43000

# Target: T1, Acetylcholinesterase (Mus musculus, UniProt P21836)
# T1 sequence (P21836 whole entry): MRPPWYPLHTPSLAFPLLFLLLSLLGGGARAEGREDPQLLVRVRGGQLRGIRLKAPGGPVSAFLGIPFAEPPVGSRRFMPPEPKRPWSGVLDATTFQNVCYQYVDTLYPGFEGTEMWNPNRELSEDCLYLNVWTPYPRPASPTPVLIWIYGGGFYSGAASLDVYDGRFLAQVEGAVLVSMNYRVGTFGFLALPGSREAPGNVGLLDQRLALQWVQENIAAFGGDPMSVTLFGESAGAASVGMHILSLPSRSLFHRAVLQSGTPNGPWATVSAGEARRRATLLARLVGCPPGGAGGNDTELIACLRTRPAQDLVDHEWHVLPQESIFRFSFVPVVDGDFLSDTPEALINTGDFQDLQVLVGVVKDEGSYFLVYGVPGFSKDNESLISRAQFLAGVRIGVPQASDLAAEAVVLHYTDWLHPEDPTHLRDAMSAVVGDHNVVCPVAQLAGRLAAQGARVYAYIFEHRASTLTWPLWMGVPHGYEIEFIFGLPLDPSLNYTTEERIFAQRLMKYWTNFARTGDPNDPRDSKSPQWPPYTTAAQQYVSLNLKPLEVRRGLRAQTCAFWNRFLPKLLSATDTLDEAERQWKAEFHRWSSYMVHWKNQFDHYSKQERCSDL
# Test: Inhibition of mouse brain acetylcholinesterase by Ellman's method
# Conditions: not given
row,Compound,IC50 [nM]
1,CN[C@@H](CCOc1ccc([N+](=O)[O-])cc1)c1ccc(OC(=O)N(C)C)cc1,101
2,CN(C)C(=O)Oc1ccc2c(c1)C=CCN[C@@H]2CCOc1ccc([N+](=O)[O-])cc1,14
3,CN[C@H](CCOc1ccc([N+](=O)[O-])cc1)c1ccc(OC(=O)N(C)C)cc1,143
4,CN(C)C(=O)Oc1ccc([C@@H](N)CCOc2ccc([N+](=O)[O-])cc2)cc1,101
5,CNC(CCOc1ccc([N+](=O)[O-])cc1)c1ccc(OC(=O)N(C)C)cc1 (racemic),125

# Target: Butyrylcholinesterase (Rattus norvegicus) (UniProt Q9JKC1)
# Test: Inhibition of rat serum butyrylcholinesterase using butyrylthiocholine iodide as substrate at 50 uM incubated for 15 mins by Ellman's method relative to control
# Conditions: not given
# Sequence of Butyrylcholinesterase (Rattus norvegicus) (Q9JKC1 as listed by the source): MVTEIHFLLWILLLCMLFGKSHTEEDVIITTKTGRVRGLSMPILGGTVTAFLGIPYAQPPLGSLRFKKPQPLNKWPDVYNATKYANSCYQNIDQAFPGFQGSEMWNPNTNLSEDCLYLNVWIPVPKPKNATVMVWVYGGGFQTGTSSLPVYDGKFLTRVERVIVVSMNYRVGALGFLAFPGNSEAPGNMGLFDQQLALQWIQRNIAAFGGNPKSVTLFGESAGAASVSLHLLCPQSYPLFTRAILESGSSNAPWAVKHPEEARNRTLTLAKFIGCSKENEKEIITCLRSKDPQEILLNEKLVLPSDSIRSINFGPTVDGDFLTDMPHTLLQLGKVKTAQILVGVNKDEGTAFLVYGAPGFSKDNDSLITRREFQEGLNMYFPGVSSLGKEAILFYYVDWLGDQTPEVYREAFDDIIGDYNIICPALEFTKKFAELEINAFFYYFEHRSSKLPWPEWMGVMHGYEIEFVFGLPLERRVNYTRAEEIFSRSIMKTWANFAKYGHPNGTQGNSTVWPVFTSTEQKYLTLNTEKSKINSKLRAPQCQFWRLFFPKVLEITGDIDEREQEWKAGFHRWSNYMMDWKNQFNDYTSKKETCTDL
row,Compound,inhibition [%]
1,CCN(CC)Cc1ccc(/C=C/c2cnc(C)c3c2COC(C)(C)O3)cc1O,8.9

# Target: T2, Acetylcholinesterase (Rattus norvegicus, UniProt P37136)
# T2 sequence (P37136 whole entry): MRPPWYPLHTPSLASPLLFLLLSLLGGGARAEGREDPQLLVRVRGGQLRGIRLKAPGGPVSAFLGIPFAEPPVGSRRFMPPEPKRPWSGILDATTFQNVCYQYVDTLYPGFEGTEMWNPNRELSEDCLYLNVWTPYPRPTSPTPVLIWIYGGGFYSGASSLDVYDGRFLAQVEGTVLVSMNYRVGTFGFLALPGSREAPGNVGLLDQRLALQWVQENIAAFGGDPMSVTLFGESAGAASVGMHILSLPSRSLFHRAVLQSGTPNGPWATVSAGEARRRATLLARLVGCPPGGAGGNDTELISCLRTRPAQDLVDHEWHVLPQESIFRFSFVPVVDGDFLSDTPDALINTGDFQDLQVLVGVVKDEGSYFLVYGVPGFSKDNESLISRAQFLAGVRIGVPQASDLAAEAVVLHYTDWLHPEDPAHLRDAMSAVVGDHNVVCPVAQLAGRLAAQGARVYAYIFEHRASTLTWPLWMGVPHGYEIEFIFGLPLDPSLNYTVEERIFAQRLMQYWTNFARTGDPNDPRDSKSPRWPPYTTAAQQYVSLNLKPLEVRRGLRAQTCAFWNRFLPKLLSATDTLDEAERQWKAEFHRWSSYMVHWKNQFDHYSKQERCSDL
# Test: Antagonist activity at Acetylcholinesterase in Sprague-Dawley rat phrenic nerve-hemidiaphragm assessed as reversal of d-tubocurarine induced neuromuscular blockade after 15 mins
# Conditions: read-out: I50
row,Compound,IC50 [nM]
1,CC1=CC2Cc3nc4cc(Cl)ccc4c(N)c3C(C1)C2 (racemic) [HUPRINE Y],84.3
2,CCC1=CC2Cc3nc4ccccc4c(N)c3C(C1)C2 (racemic),84
3,"CC1=CC2Cc3nc4cc(Cl)ccc4c(N)c3C(C1)C2 (single isomer, unassigned; (-)) [HUPRINE Y]",31.6
4,CC1=C[C@@H]2Cc3nc4cc(F)ccc4c(N)c3[C@H](C1)C2,48.6
5,CC1=CC2Cc3nc4ccccc4c(N)c3C(C1)C2 (racemic),176

# Target: Sodium-dependent serotonin transporter (Rattus norvegicus, UniProt P31652)
# Test: Inhibition of rat synaptosome SERT assessed as reduction in [3H]5-HT uptake
# Conditions: not given
# Sequence of Sodium-dependent serotonin transporter (P31652 whole entry): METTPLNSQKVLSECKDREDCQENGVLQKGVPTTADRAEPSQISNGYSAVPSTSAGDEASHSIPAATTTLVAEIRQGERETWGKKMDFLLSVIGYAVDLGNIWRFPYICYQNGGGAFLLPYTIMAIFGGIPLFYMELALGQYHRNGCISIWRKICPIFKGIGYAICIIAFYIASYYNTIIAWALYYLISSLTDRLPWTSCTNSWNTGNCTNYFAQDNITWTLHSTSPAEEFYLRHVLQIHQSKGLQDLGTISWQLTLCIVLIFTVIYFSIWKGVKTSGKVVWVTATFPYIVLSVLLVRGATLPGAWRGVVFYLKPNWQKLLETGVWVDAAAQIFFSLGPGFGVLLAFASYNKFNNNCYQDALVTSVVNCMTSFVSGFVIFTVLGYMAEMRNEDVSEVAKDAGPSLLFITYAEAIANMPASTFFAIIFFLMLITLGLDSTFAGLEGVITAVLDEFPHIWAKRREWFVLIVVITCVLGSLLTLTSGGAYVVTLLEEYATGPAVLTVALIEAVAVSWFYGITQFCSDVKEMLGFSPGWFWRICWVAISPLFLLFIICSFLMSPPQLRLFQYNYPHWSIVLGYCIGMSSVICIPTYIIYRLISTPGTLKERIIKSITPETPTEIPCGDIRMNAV
row,Compound,IC50 [nM]
1,CN[C@@H](CCOc1ccc([N+](=O)[O-])cc1)c1ccc(OC(=O)N(C)C)cc1,42
2,CN(C)C(=O)Oc1ccc2c(c1)C=CCN[C@@H]2CCOc1ccc([N+](=O)[O-])cc1,6
3,CN[C@H](CCOc1ccc([N+](=O)[O-])cc1)c1ccc(OC(=O)N(C)C)cc1,135
4,CN(C)C(=O)Oc1ccc([C@@H](N)CCOc2ccc([N+](=O)[O-])cc2)cc1,42
5,CNC(CCOc1ccc([N+](=O)[O-])cc1)c1ccc(OC(=O)N(C)C)cc1 (racemic),44
6,CN(C)C(=O)Oc1ccc2c(c1)C=CCN(C)[C@H]2CCOc1ccc([N+](=O)[O-])cc1,930

# Target: Cholinesterase (Homo sapiens, UniProt P06276)
# Test: Inhibition of human serum butyrylcholinesterase using butyrylthiocholine iodide as substrate preincubated for 20 mins followed by substrate addition by Ellman's method
# Conditions: not given
# Sequence of Cholinesterase (P06276 whole entry): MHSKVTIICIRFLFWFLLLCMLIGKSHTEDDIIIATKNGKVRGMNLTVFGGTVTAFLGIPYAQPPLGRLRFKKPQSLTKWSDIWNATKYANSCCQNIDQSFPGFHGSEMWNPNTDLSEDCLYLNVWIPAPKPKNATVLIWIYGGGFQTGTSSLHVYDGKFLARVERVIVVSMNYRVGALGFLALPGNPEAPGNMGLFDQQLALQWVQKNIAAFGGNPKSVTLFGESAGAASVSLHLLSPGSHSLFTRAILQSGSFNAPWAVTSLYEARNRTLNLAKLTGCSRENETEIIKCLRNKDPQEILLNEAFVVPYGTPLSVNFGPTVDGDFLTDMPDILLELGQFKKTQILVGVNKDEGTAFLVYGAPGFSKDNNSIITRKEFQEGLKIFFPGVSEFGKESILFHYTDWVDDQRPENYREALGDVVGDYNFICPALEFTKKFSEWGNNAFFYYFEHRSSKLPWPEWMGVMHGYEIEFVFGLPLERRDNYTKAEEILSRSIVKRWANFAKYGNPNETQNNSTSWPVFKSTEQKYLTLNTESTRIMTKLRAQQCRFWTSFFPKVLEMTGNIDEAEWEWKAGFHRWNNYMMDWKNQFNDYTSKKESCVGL
row,Compound,IC50 [nM]
1,c1ccc2c(NCCSSCCNc3c4c(nc5ccccc35)CCCC4)c3c(nc2c1)CCCC3,5.66
